Measured values published in ChEMBL document CHEMBL5512619, “Anticancer mechanism of coumarin-based derivatives” (Eur J Med Chem, 2024).
pIC50, pKi: −log10 of the molar value.

What was measured:
Carbonic anhydrase 1 = Carbonic anhydrase 1 (Homo sapiens, UniProt P00915); assay: Binding affinity to human CA1 assessed as inhibition constant incubated for 10 mins by phenol red dye based stopped flow CO2 hydration assay
Carbonic anhydrase 2 = Carbonic anhydrase 2 (Homo sapiens, UniProt P00918); assay: Binding affinity to human CA2 assessed as inhibition constant incubated for 10 mins by phenol red dye based stopped flow CO2 hydration assay
A549 = assay: Antiproliferative activity against human A549 cells incubated 24 hrs by MTT assay; type: functional, cell-based; settings: A549, 24 h
MDA-MB-231 = assay: Antiproliferative activity against human MDA-MB-231 cells incubated 24 hrs by MTT assay; type: functional, cell-based; settings: MDA-MB-231, 24 h

Chain of Carbonic anhydrase 1 (P00915 whole entry): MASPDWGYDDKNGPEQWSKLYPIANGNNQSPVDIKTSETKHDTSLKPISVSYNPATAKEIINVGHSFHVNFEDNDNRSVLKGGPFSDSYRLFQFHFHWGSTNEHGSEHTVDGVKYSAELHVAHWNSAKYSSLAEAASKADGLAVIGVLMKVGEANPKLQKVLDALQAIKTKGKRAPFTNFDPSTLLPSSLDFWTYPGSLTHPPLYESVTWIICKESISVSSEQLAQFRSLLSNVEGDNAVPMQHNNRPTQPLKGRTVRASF

Row | Compound | pKi (Carbonic anhydrase 1) | pKi (Carbonic anhydrase 2) | pIC50 (A549) | pIC50 (MDA-MB-231)
1 | O=c1oc2ccccc2cc1-c1cc(-c2cccc(Br)c2)nc(Cc2ccc(F)cc2)n1 | – | – | > 5.00 | > 5.00
2 | O=c1oc2ccccc2cc1-c1cc(-c2ccccc2Br)nc(Cc2ccc(F)cc2)n1 | – | – | > 5.00 | > 5.00
3 | COc1ccc(C(=O)Nc2ccc3c(c2)C=CS(=O)(=O)O3)cc1S(=O)(=O)N1CCCC1 | 7.00 | 7.00 | – | –
4 | Cc1ccc(C(=O)Nc2ccc3c(c2)C=CS(=O)(=O)O3)cc1S(=O)(=O)N1CCCCC1 | 7.00 | 7.00 | – | –
5 | O=C(Nc1ccc2c(c1)C=CS(=O)(=O)O2)c1cccc(S(=O)(=O)N2CCOCC2)c1 | 7.00 | 7.00 | – | –
6 | O=c1oc2ccccc2cc1-c1cc(-c2ccccc2Cl)nc(Cc2ccc(F)cc2)n1 | – | – | > 5.00 | > 5.00
7 | Cc1ccc(C(=O)Nc2ccc3c(c2)C=CS(=O)(=O)O3)cc1S(=O)(=O)N1CCCC1 | 7.00 | 7.00 | – | –
8 | COc1ccccc1-c1cc(-c2cc3ccccc3oc2=O)nc(Cc2ccc(F)cc2)n1 | – | – | > 5.00 | > 5.00
9 | C[C@@H]1CN(S(=O)(=O)c2cc(C(=O)Nc3ccc4c(c3)C=CS(=O)(=O)O4)ccc2Cl)C[C@H](C)S1 | 7.00 | 7.00 | – | –
10 | O=c1oc2ccccc2cc1-c1cc(-c2cccc(Cl)c2)nc(Cc2ccc(F)cc2)n1 | – | – | > 5.00 | > 5.00
11 | Cc1ccc(-c2cc(-c3cc4ccccc4oc3=O)nc(Cc3ccc(F)cc3)n2)cc1 | – | – | > 5.00 | > 5.00
12 | COc1ccc(C(=O)Nc2ccc3c(c2)C=CS(=O)(=O)O3)cc1S(=O)(=O)N1CCOCC1 | 7.00 | 7.00 | – | –
13 | COc1ccc(-c2cc(-c3cc4ccccc4oc3=O)nc(Cc3ccc(F)cc3)n2)cc1 | – | – | > 5.00 | > 5.00

Next, values leading:

Row | pKi (Carbonic anhydrase 1) | pKi (Carbonic anhydrase 2) | pIC50 (A549) | pIC50 (MDA-MB-231) | Compound
14 | 7.00 | 7.00 | – | – | O=C(Nc1ccc2c(c1)C=CS(=O)(=O)O2)c1cccc(S(=O)(=O)N2CCCC2)c1
15 | – | – | > 5.00 | > 5.00 | O=c1oc2ccccc2cc1-c1cc(-c2ccc(Br)cc2)nc(Cc2ccc(F)cc2)n1
16 | 7.00 | 7.00 | – | – | O=C(Nc1ccc2c(c1)C=CS(=O)(=O)O2)c1ccc(Cl)c(S(=O)(=O)N2CCCCC2)c1
17 | 7.00 | 7.00 | – | – | COc1ccc(C(=O)Nc2ccc3c(c2)C=CS(=O)(=O)O3)cc1S(=O)(=O)N1C[C@@H](C)O[C@@H](C)C1
18 | 7.00 | 7.00 | – | – | C[C@@H]1CN(S(=O)(=O)c2cc(C(=O)Nc3ccc4c(c3)C=CS(=O)(=O)O4)ccc2F)C[C@H](C)O1
19 | 7.00 | 7.00 | – | – | O=C(Nc1ccc2c(c1)C=CS(=O)(=O)O2)c1ccc(F)c(S(=O)(=O)N2CCCC2)c1
20 | 7.00 | 7.00 | – | – | O=C(Nc1ccc2c(c1)C=CS(=O)(=O)O2)c1ccc(Cl)c(S(=O)(=O)N2CCOCC2)c1
21 | – | – | > 5.00 | > 5.00 | O=c1oc2ccccc2cc1-c1cc(-c2ccc(Cl)cc2)nc(Cc2ccc(F)cc2)n1
22 | – | – | > 5.00 | > 5.00 | COc1cccc(-c2cc(-c3cc4ccccc4oc3=O)nc(Cc3ccc(F)cc3)n2)c1
23 | – | – | > 5.00 | > 5.00 | Cc1cccc(-c2cc(-c3cc4ccccc4oc3=O)nc(Cc3ccc(F)cc3)n2)c1
24 | 7.00 | 7.00 | – | – | COc1ccc(C(=O)Nc2ccc3c(c2)C=CS(=O)(=O)O3)cc1S(=O)(=O)N1CCSCC1
25 | – | – | > 5.00 | > 5.00 | Cc1ccccc1-c1cc(-c2cc3ccccc3oc2=O)nc(Cc2ccc(F)cc2)n1
26 | 7.00 | 7.00 | – | – | C[C@@H]1CN(S(=O)(=O)c2cccc(C(=O)Nc3ccc4c(c3)C=CS(=O)(=O)O4)c2)C[C@H](C)O1
27 | 7.00 | 7.00 | – | – | O=C(Nc1ccc2c(c1)C=CS(=O)(=O)O2)c1ccc(F)c(S(=O)(=O)N2CCOCC2)c1
